Results from US20040048899A1, “Tartrate salts of thiazollidnedione derivative” (priority 2000, published 2004).
Read-outs that look alike come from different tables or passages of the source.

Settings: 1 month, glass bottle, product of Example 4
Protocol: The solid state stability of the drug substance was determined by storing approximately 1.0 g of the material in a glass bottle at i) 40° C./75% Relative Humidity (RH), open exposure, for 1 month and b) at 50° C., closed, for 1 month. The material was assayed by HPLC for final content and degradation products in both cases.

[1] = 40° C./75% Relative Humidity, open exposure

Which results are given for `CN(CCOc1ccc(CC2SC(=O)NC2=O)cc1)c1ccccn1.O=C(O)C(O)C(O)C(=O)O` (stereo not drawn) [D(−) Tartrate, 5-[4-[2-(N-methyl-N-(2-pyridyl)amino)ethoxy]benzyl]thiazolidine-2,4-dione, D(−) tartrate salt]?
Solid state stability: HPLC assay [1]: 96 % initial; Solid state stability: degradation observed [1]: No significant degradation observed; Solid state stability: HPLC assay (50° C., closed): 98 % initial; Solid state stability: degradation observed (50° C., closed): No significant degradation observed
